In brackets after ≈: the same amount, converted by molar mass.
Key:
Format in all cases: functional
[1] = test system: Acinetobacter baumannii; assay: Antibacterial activity against blaOXA-24-positive Acinetobacter baumannii isolate VA-566/00 by CLSI broth microdilution method
[2] = test system: Acinetobacter baumannii; assay: Antibacterial activity against blaOXA-24-positive Acinetobacter baumannii isolate RUH134 harboring plasmid ABVA01 by CLSI broth microdilution method
[3] = test system: Acinetobacter baumannii; assay: Antibacterial activity against blaOXA-24-positive Acinetobacter baumannii isolate RUH134 by CLSI broth microdilution method
[4] = test system: Acinetobacter baumannii; assay: Antibacterial activity against blaOXA-24-positive Acinetobacter baumannii isolate N50 by CLSI broth microdilution method
[5] = test system: Acinetobacter baumannii; assay: Antibacterial activity against blaOXA-24-positive Acinetobacter baumannii isolate RUH134 harboring plasmid ABVA01 by CLSI broth microdilution method in presence of Sulbactam
[6] = test system: Acinetobacter baumannii; assay: Antibacterial activity against blaOXA-24-positive Acinetobacter baumannii isolate VA-566/00 by CLSI broth microdilution method in presence of Sulbactam
[7] = test system: Acinetobacter baumannii; assay: Antibacterial activity against blaOXA-24-positive Acinetobacter baumannii isolate N50 by CLSI broth microdilution method in presence of Sulbactam
[8] = test system: Acinetobacter baumannii; assay: Antibacterial activity against blaOXA-24-positive Acinetobacter baumannii isolate RUH134 by CLSI broth microdilution method in presence of Sulbactam

Compound	MIC [1] [µg/mL]	MIC [2] [µg/mL]	MIC [3] [µg/mL]	MIC [4] [µg/mL]	MIC [5] [µg/mL]	MIC [6] [µg/mL]	MIC [7] [µg/mL]	MIC [8] [µg/mL]
COLISTIN	0.5	0.5	0.5	> 8				
CC1(C)S[C@@H]2[C@H](NC(=O)[C@H](N)c3ccccc3)C(=O)N2[C@H]1C(=O)O [AMPICILLIN]					64	64	32	64
NCC[C@H](O)C(=O)N[C@@H]1C[C@H](N)[C@@H](O[C@H]2O[C@H](CN)[C@@H](O)[C@H](O)[C@H]2O)[C@H](O)[C@H]1O[C@H]1O[C@H](CO)[C@@H](O)[C@H](N)[C@H]1O [AMIKACIN]	64 (≈ 109 µM)	4 (≈ 6.83 µM)	4 (≈ 6.83 µM)	256 (≈ 437 µM)				
C[C@@H](O)[C@H]1C(=O)N2C(C(=O)O)=C(SCCNC=N)C[C@H]12 [IMIPENEM ANHYDROUS]	256 (≈ 855 µM)	64 (≈ 214 µM)	0.25 (≈ 0.835 µM)	128 (≈ 428 µM)				
C[C@@H](O)[C@H]1C(=O)N2C(C(=O)O)=C(S[C@@H]3CN[C@H](C(=O)N(C)C)C3)[C@H](C)[C@H]12 [MEROPENEM]	256 (≈ 668 µM)	128 (≈ 334 µM)	1 (≈ 2.61 µM)	128 (≈ 334 µM)				
CC(C)(O/N=C(\C(=O)N[C@@H]1C(=O)N2C(C(=O)[O-])=C(C[n+]3ccccc3)CS[C@H]12)c1csc(N)n1)C(=O)O [CEFTAZIDIME]	> 256	16 (≈ 29.3 µM)	16 (≈ 29.3 µM)	> 256				
GENTAMICIN	> 256	> 256	> 256	> 256				
CN(C)c1cc(NC(=O)CNC(C)(C)C)c(O)c2c1C[C@H]1C[C@H]3[C@H](N(C)C)C(O)=C(C(N)=O)C(=O)[C@@]3(O)C(O)=C1C2=O [TIGECYCLINE]	4 (≈ 6.83 µM)	1 (≈ 1.71 µM)	1 (≈ 1.71 µM)	1 (≈ 1.71 µM)				

Reference: ChEMBL document CHEMBL1649555, “Characterization of pABVA01, a plasmid encoding the OXA-24 carbapenemase from Italian isolates of Acinetobacter baumannii” (2009)
